Drawing on ChEMBL document CHEMBL1833794, “Synthesis and biological evaluation of 1-substituted-3-(6-methylpyridin-2-yl)-4-([1,2,4]triazolo[1,5-a]pyridin-6-yl)pyrazoles as transforming growth factor-β type 1 receptor kinase inhibitors” (Bioorg Med Chem Lett, 2011), this text covers bioavailability for one compound.

What all share (settings): in vivo
A short description of series [1]: Oral bioavailability in dog at 5.5 mg/kg. Type of series: ADME, organism-based, Canis lupus familiaris.
Series [2] can be described thus: Oral bioavailability in rhesus monkey at 5.5 mg/kg. The format is ADME, organism-based, Macaca mulatta.
The nature of series [3]: Oral bioavailability in rat at 50.3 mg/kg. The format is ADME, organism-based.
Series [4] can be described thus: Oral bioavailability in mouse at 50.3 mg/kg. Type of series: ADME, organism-based.

Molecules are shown by their SMILES.

On to `Cc1cccc(-c2[nH]c(Cc3cccc(C(N)=O)c3)nc2-c2ccc3nccnc3c2)n1`, for which the bioavailability stood at 84.9% in series [1], 34.4% in series [2], 11.4% in series [3] and 8.95% in series [4].

What is called bioavailability is dose-corrected exposure relative to a reference, in per cent.
